Experimental data reported in US12729194B2, “Compounds for the treatment of human immunodeficiency virus” (priority 2019, dated 2026).
pIC50: −log10 of the molar value.

Key:
HIV-1 with HIV-1AD8 Env = assay: microbe, parasite or virus in culture; type: cell-based; settings: for pIC50: Human immunodeficiency virus 1, Cf2Th-CD4/CCR5 target cells, 48 hours, luciferase, means and standard errors of four experiments, read-out: 50% inhibitory concentration (IC50), AD8; for Potency of inhibition of HIV-1 infection (in words): Table 1 HIV-1 Envs
HIV-1 with BG505 Env = assay: microbe, parasite or virus in culture; type: cell-based; settings: Human immunodeficiency virus 1; Cf2Th-CD4/CCR5 target cells, 48 hours, luciferase; means and standard errors of four experiments; read-out: 50% inhibitory concentration (IC50), BG505
[1] = tested on: HIV-1 with HIV-1JR-FL Env; assay: microbe, parasite or virus in culture; type: cell-based; settings: Human immunodeficiency virus 1; Cf2Th-CD4/CCR5 target cells, 48 hours, luciferase; means and standard errors of four experiments; read-out: 50% inhibitory concentration (IC50), JR-FL
[2] = tested on: HIV-1 with JR-FL S375W Env; type: cell-based; settings: Cf2Th-CD4/CCR5 target cells, 48 hours, luciferase; read-out: 50% inhibitory concentration (IC50), JR-FL S375W
[3] = tested on: envelope glycoproteins of the amphotropic murine leukemia virus (AMLV); assay: microbe, parasite or virus in culture; type: cell-based; settings: Cf2Th-CD4/CCR5 target cells, 48 hours, luciferase, specificity control, read-out: 50% inhibitory concentration (IC50), AMLV
HIV-1AD8 Env on VLPs [4] = assay: Reversibility of compound effects on VLP Env conformation (19b antibody recognition after washing); settings: for Durability / reversibility of Env conformational effects (in words): after washing
Procedure: (§1) Characterization of VLP-associated Env: To prepare VLPs with HIV-1AD8 Env, 150-mm dishes of 30-40% confluent A549-Gag/Env cells were seeded and, on the following day, treated with 2 μg/ml doxycycline. Approximately 72 hours after induction, cell supernatants were harvested and cleared by low-speed centrifugation (500×g for 15 minutes at 4° C.) and 0.45-μ filtration. VLPs were pelleted by centrifugation at 100,000×g for one hour at 4° C. The resuspended VLP preparation was clarified by low-speed centrifugation. BMS-806 and compounds described herein were added to the clarified VLP-containing suspensions. In some cases, the VLP-compound mixtures were irradiated with a 100-watt, 365-nm ultraviolet (UV) lamp for 10 minutes at room temperature. For all UV studies, exposure of the samples to visible light was minimized.
For studies of the reversibility of effects, the compounds were added to the VLPs and mixed for several seconds at room temperature. Then the VLPs were pelleted (20,000×g for 30 minutes at 4° C.) twice, washing with 1.5 ml PBS with 2% DMSO. The pelleted VLPs were resuspended in 1 ml PBS with 2% DMSO and incubated at room temperature for various lengths of time (20 minutes—3 weeks). Control VLPs were incubated in the continued presence of the compounds at room temperature for the same length of time. Then the VLPs were pelleted (20,000×g for 30 minutes at 4° C.) and the pellet incubated with 1.5% Triton X-100 for 30 minutes at 4° C. The VLP lysates were centrifuged (20,000×g for 30 minutes at 4° C.) and the supernatants were incubated with antibodies (10 μg/ml) in a 50-μl volume with 25 mg/ml of Protein A-Sepharose beads for one hour at 4° C. The beads were pelleted (1000 rpm for 1 minute at room temperature) and washed three times with 1 ml wash buffer with 1% Triton X-100. The beads were suspended in NuPAGE LDS Sample Buffer (ThermoFisher), boiled and analyzed by Western blot, as described above.
The BMS-806-induced decrease in binding of the 19b anti-V3 antibody can be used as an indicator of BMS-806-Env binding, allowing estimation of the stability of the Env-compound complex. BMS-806 and BMS-529 were incubated with the HIV-1AD8 Env on VLPs. The VLPs were then washed and incubated at room temperature for various lengths of time in a buffer with (+/+) or without (+/−) compound. After this incubation, Env conformation was assessed using the 19b anti-V3 antibody, the 2G12 antibody (the binding of which is not affected by BMS-806), and a negative control human immunoglobulin (hIgG) preparation. 19b recognition of Env in the washed samples (+/−) was compared with those in the samples continuously incubated with the compound (+/+) and the untreated samples (−) (FIG. 4). […] Despite this slow rate of dissociation of compounds described herein from Env, the binding and the consequent effects of these compounds on Env conformation appear to be reversible.

HIV-1AD8 Env on VLPs [5] = assay: Shedding of gp120 from VLP Env; settings: 4° C. and 37° C., 4 days, no detergent
Procedure: Shedding of gp120 from VLP Env: The effect of compounds on the spontaneous shedding of gp120 from VLP Env was evaluated. VLPs with the wild-type HIV-1AD8 Env were prepared from the supernatants of A549-Gag/Env cells, as described above. The VLPs were suspended in PBS, to which was added either DMSO or a compound described herein. An aliquot of the VLP suspension in PBS/DMSO was processed as described below to serve as a Day 0 control. The VLP suspensions were incubated for 4 days at 4° C., room temperature or 37° C. (with gentle rocking). Then the VLPs were pelleted (100,000×g for 30 min at 4° C.). The pellets and supernatants were boiled in LDS sample buffer and analyzed by Western blotting with either 1:2000 goat anti-gp120 polyclonal antibody (ThermoFisher) and HRP-conjugated rabbit anti-goat IgG antibody, or with 1:5000 rabbit anti-Gag p55/p24/p17 antibody (Abcam) and HRP-conjugated goat anti-rabbit IgG antibody (Abcam).

VLP HIV-1AD8 Env = assay: Antibody recognition of VLP-associated Env; settings: compound plus UV irradiation
Procedure: as §1
For studies of the binding of ligands (antibodies, CD4-Ig and C34-Ig) to detergent-solubilized VLP Env, VLPs prepared as described above were pelleted (20,000×g for 30 minutes at 4° C.). The pellet was incubated with 1.5% Triton X-100 for 30 minutes at 4° C. The VLP lysates were centrifuged (20,000×g for 30 minutes at 4° C.) and the supernatants were incubated with ligands (10 μg/ml) in a 50-μl volume with 25 mg/ml of Protein A-Sepharose beads for one hour at 4° C. The beads were pelleted (1000 rpm for 1 minute at room temperature), washed three times with 1 ml wash buffer with 1% Triton X-100, suspended in LDS Sample Buffer and analyzed by Western blot, as described above.
In a second assay format, the effect of the compounds was analyzed on the binding of antibodies to Env on intact VLPs, in the absence of detergent. In this case, VLPs in A549-Gag/Env supernatants, clarified as described above, were pelleted at 100,000×g for one hour at 4° C. The pellet was resuspended in PBS and the VLPs pelleted at 20,000×g for 30 minutes at 4° C. The VLPs were resuspended in PBS and incubated with antibodies (10 μg/ml) in a 100-μl volume for one hour at 4° C. The VLPs were then pelleted (20,000×g for 30 minutes at 4° C.) and washed with PBS three times. The VLP pellet was then solubilized in 1.5% Triton X-100 for 30 minutes at 4° C., after which the VLP lysates were clarified by centrifugation at 20,000×g for 30 minutes at 4° C. The supernatants were incubated with 50 μl of Protein A-Sepharose beads for one hour at 4° C. The beads were pelleted (1000 rpm for 1 minute at room temperature), washed three times with 1 ml wash buffer with 1% Triton X-100, suspended in LDS Sample Buffer, and analyzed by Western blot, as described above.

Row | Compound | pIC50 (HIV-1 with HIV-1AD8 Env) | Potency of inhibition of HIV-1 infection (in words) (HIV-1 with HIV-1AD8 Env) | pIC50 (HIV-1 with BG505 Env) | pIC50 [1] | pIC50 [2] | pIC50 [3] | Durability / reversibility of Env conformational effects (in words) (HIV-1AD8 Env on VLPs [4]) | Spontaneous shedding of gp120 into the VLP supernatant (HIV-1AD8 Env on VLPs [5]) | VLP Env recognition by poorly neutralizing antibodies two weeks after treatment (VLP HIV-1AD8 Env; washed, two weeks without compound) | VLP Env recognition by bNAbs two weeks after treatment (VLP HIV-1AD8 Env; PG9, PGT145, PGT151, 35022, 2F5, 4E10, 10E8) | Time until conformational effects on Env are reversed after washing (HIV-1AD8 Env on VLPs [4]; VLPs in PBS with 2% DMSO, room temperature) | Conformational effect on 19b binding after washing (HIV-1AD8 Env on VLPs [4]; twenty-four hours after washing, room temperature)
1 | COc1ccc(-c2ccc(CNC(=O)c3ccccc3)o2)c2[nH]cc(C(=O)C(=O)N3CCN(C(=O)c4ccccc4)CC3)c12 [AEG-III-032] | 9.44 | potencies comparable to that of BMS-806 | 8.82 | 9.22 | < 7.00 | < 7.00 | – | – | – | – | – | –
2 | COc1ccc(-c2ccc(CNC(=O)c3ccc(C4(C(F)(F)F)N=N4)cc3)o2)c2[nH]cc(C(=O)C(=O)N3CCN(C(=O)c4ccccc4)CC3)c12 [AEG-II-159] | 9.70 | – | 9.10 | 8.80 | < 7.00 | < 7.00 | at least three weeks | – | – | – | – | –
3 | O=C(Nc1cccc2c(C(=O)C(=O)N3CCN(C(=O)c4ccccc4)CC3)c[nH]c12)c1ccc(C2(C(F)(F)F)N=N2)cc1 [AEG-III-087] | 10.22 | – | 8.72 | 10.00 | < 7.00 | < 7.00 | – | decreased the shedding of gp120 | lowered Env recognition by poorly neutralizing antibodies | this increase was not seen | – | –
4 | O=C(Nc1cccc2c(C(=O)C(=O)N3CCN(C(=O)c4ccccc4)CC3)c[nH]c12)c1ccccc1 [AEG-III-096] | 8.62 | potencies comparable to that of BMS-806 | – | 9.05 | < 7.00 | < 7.00 | much faster reversibility | – | – | – | – | –
5 | COc1cnc(-n2cnc(C)n2)c2[nH]cc(C(=O)C(=O)N3CCN(C(=O)c4ccccc4)CC3)c12 [BMS-529, reference compound] | – | – | – | – | – | – | – | – | – | – | 2 to 4 days | still apparent
